PMC9929129, “Towards Translation of PqsR Inverse Agonists: From In Vitro Efficacy Optimization to In Vivo Proof‐of‐Principle” (Advanced Science, 2023)
Values joined by “and” are separate entries in the source; they are usually repeats but may differ in a detail not shown here. Equal entries are not always repeated.

Tests used:
[1] = target: T1, BK (KCa1.1/β1) calcium-activated potassium channel (Homo sapiens, UniProt Q12791); assay: Ion channel profiling at Charles River: BK; type: cell-based; conditions: expressed in CHO cells; read-out: ESTIMATED IC50
T1 construct: host or cells: CHO cells
Experimental: 1.4.3 Ion Channel Profiling at Charles River
Table S9. Compound 24 was tested against the following ion channels at Charles River Laboratories. […]
BK (KCa1.1/β1) calcium-activated potassium channel (human >30
KCNMA1 and KCNMB1 genes) expressed in CHO cells
FASTPatch Assay IK (KCa3.1) calcium-activated potassium channel (human KCNN4 >30 gene) expressed in CHO cells […]
(§1) FLIPR Assay expressed in HEK293 cells
GABAA α5/β3/γ2 ionotropic receptor (human GABRA5, GABRB3, >30 and GABRG2 genes, expressed in HEK293 cells

[2] = system: Ca2+ channel (L, dihydropyridine site); assay: Cerep panel binding assay; set-up: species or system rat; conditions: 10 µM, antagonist radioligand
Experimental: 1.4 Safety Pharmacology of Compound 24
1.4.1 Cerep panel (Eurofins)
Compound 24 was further profiled for its off-target interactions against a panel of 44 targets. The
screening was done by Eurofins Pharma Discovery within the SafetyScreen44 Panel (Cerep, ITEM
P270). In all assays binding/functional inhibition was determined at 10 µM.
Table S6. List of binding assays within the CEREP44 off-target panel and binding data for compound

[3] = target: T2, NET human norepinephrine transporter (Homo sapiens, UniProt P23975); assay: NET functional antagonist uptake assay (Eurofins); type: cell-based
T2 construct: Eurofins 302000
Experimental: (§2) 1.4.2 Further functional off-target assays (Eurofins)
(§3) Table S8. Compound 24 was further tested in the following functional assays at Eurofins.
ASSAY NAME ESTIMATED IC50 [µM]
NET human norepinephrine transporter functional antagonist uptake >10 µM […]
as §1
(§4) GABAA α5/β3/γ2 ionotropic receptor (human GABRA5, GABRB3, >30
(§5) and GABRG2 genes, expressed in HEK293 cells

[4] = Metabolic stability in mouse liver S9 fractions; type: in vitro ADME; conditions: liver S9 fraction, read-out: Mouse liver S9 t½
[5] = target: T3, Nav1.5 human sodium ion channel (Homo sapiens, UniProt Q14524); assay: Nav1.5 automated patch clamp CiPA assay (Eurofins); type: cell-based
T3 construct: Eurofins CYL8004QP2DR
Experimental: as §2, §3
ASSAY NAME ESTIMATED IC50 [µM] […]
Nav1.5 human sodium ion channel cell based automated patch clamp >30 µM
CiPA assay (CYL8004QP2DR) […]
as §1, §4, §5

PA14 biofilm = assay: Biofilm-formation assay (Calgary biofilm device); type: cell-based, Pseudomonas aeruginosa; conditions: 24 present from the beginning or added 8 h after onset of biofilm growth; CFU after 48 h
Experimental: MA, USA) instrument parameters: Spray voltage 3500 V, vaporizer temperature 370 °C, sheath gas pressure 35 psi, aux gas pressure 30 psi, capillary temperature 270 °C, collision pressure 1.5 mTorr, positive ionization mode. For AQ analyte reaction monitoring parameters please see Table S1.
Table S1. LC-ESI-MS/MS reaction monitoring parameters of AQ analytes in positive ionization mode. precursor product ion collision tube lens retention ion m/z m/z energy (V) offset (V) time (min)
1.2.4 Biofilm-formation assay
Biofilm formation was determined using a MBEC Assay® Biofilm Inoculator with 96-well base (Innvotech, Edmonton, CA). An overnight culture of PA14 was centrifuged (10 min, 5000 x g). The supernatant including extracellular polymers was removed and the pellet washed with 10 mL of LB medium. Centrifugation was repeated, the supernatant discarded, and the pellet resuspended in 5 mL of LB. OD was adjusted to 0.2. The bacteria were further diluted in LB medium, followed by addition of the target compound or DMSO control to give OD 0.1 and 1% DMSO. 150 µL were added to each well of the 96-well plate. The outer wells were used as blanks containing 150 µL of 1% DMSO in LB. Six replicates per sample were distributed evenly across the plate, with every row containing one replicate of each sample. […]
Statistical outliers were determined using the Nalimov test, applying a 95% cut-off. […]

T3 sequence (Q14524 whole entry): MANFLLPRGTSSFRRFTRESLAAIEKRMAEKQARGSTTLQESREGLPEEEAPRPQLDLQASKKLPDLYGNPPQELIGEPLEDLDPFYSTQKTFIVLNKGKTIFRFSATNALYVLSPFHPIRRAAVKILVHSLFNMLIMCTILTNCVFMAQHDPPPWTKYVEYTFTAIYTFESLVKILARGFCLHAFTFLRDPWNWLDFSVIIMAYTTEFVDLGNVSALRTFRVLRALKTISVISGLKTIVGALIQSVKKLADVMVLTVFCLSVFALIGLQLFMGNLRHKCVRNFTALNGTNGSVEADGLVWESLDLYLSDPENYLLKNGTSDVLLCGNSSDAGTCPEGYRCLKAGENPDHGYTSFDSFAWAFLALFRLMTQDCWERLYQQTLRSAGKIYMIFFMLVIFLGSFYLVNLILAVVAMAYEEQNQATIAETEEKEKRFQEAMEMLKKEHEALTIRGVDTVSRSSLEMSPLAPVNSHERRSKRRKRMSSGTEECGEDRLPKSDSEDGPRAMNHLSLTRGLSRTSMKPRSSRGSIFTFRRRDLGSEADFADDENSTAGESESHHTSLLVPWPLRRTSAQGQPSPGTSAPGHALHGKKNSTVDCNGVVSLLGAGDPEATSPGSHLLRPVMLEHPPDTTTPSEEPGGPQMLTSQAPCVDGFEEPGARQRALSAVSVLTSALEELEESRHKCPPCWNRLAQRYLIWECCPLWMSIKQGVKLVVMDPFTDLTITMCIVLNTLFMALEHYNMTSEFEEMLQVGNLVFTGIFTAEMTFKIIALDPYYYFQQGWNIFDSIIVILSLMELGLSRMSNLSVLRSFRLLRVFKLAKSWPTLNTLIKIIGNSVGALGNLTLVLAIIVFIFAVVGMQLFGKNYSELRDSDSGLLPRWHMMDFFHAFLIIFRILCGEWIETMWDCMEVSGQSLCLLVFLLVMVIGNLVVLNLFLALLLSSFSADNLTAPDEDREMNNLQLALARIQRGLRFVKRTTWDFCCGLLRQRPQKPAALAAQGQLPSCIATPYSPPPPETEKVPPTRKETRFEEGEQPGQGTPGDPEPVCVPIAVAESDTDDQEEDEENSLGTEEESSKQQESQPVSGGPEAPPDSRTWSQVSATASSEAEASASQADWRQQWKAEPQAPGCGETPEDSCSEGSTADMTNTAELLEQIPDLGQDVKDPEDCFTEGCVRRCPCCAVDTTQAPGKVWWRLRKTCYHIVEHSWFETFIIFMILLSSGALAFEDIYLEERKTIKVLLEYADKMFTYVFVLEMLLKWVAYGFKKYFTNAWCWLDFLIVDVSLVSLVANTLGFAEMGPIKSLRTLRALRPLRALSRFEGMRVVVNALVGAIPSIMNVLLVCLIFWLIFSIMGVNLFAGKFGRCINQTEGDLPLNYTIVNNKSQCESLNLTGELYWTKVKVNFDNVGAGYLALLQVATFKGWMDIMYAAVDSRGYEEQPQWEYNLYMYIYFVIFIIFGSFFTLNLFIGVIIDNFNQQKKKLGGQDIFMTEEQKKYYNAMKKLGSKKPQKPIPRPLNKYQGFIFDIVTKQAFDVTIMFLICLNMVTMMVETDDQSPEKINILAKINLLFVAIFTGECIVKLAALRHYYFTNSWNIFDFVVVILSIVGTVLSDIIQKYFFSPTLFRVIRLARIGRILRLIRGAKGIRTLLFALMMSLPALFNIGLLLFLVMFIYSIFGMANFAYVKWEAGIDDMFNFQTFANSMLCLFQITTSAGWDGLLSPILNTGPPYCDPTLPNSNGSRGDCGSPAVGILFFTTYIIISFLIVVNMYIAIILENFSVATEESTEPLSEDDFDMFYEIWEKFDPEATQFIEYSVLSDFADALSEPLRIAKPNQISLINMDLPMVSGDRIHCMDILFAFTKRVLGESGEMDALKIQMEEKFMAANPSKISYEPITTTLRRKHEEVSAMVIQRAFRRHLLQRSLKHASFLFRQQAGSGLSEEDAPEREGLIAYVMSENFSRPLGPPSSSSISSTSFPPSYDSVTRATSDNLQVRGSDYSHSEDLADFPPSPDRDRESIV
T2 sequence (P23975 whole entry): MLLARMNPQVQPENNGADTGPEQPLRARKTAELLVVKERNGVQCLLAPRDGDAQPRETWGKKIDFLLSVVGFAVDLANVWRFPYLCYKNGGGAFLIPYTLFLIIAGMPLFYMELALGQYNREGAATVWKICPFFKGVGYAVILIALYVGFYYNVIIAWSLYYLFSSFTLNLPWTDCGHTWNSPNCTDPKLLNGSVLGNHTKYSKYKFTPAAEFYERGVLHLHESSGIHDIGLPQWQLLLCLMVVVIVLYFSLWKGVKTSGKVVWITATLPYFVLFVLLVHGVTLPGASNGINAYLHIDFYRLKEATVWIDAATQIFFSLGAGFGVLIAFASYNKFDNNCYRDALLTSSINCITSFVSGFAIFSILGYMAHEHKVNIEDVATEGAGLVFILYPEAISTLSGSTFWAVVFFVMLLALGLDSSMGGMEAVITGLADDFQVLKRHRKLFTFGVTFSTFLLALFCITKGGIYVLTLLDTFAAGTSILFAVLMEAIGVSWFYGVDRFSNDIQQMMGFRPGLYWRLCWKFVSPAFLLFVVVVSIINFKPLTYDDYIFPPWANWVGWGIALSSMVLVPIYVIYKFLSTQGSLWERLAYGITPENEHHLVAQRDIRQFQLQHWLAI
T1 sequence (Q12791 whole entry): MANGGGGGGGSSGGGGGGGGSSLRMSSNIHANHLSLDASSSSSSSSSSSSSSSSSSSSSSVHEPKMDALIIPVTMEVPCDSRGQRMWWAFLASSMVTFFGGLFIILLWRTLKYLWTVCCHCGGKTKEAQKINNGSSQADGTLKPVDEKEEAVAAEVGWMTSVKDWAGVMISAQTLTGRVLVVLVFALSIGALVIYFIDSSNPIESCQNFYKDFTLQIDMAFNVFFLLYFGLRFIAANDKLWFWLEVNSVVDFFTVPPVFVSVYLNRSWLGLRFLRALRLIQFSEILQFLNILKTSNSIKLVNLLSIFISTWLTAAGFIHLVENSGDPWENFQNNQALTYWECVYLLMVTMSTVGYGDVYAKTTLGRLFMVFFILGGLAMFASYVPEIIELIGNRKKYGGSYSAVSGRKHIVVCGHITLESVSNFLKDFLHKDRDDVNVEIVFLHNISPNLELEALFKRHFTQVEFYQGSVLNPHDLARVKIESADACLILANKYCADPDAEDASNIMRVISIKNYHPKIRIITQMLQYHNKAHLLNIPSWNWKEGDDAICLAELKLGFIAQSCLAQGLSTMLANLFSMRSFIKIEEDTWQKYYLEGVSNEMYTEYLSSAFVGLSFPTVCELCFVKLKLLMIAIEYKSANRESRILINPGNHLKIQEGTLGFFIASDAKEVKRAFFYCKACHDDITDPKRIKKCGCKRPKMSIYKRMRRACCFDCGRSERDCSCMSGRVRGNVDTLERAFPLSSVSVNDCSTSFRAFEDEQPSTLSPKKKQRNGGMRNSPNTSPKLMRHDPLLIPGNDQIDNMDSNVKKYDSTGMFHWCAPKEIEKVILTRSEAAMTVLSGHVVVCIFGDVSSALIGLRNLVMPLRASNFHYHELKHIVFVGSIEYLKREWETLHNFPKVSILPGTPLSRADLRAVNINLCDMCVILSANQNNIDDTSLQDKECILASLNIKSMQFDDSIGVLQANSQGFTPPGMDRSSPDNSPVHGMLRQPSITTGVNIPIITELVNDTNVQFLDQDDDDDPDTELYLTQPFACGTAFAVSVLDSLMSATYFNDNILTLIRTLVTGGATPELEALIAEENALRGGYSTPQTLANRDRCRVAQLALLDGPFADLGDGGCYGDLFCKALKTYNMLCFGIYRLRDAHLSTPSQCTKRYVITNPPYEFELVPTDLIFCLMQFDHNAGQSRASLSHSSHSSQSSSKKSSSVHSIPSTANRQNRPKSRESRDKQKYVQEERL
T1 sequence (Q16558 whole entry partner): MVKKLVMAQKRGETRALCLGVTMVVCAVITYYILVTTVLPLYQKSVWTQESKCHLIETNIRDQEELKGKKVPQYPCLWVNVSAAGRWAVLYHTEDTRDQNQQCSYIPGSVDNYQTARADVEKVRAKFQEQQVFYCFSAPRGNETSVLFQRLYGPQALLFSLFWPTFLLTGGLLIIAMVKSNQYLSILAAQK

CC(C)Oc1ccc(-c2ncc(CNc3ccnc(C(F)(F)F)c3)cn2)cc1Cl [Compound 24]
IC50 [1]: > 30 µM | BINDING (%) [2]: 75.3% and > 50% | IC50 [3]: > 10 µM | half-life [4]: 50 min | IC50 [5]: > 30 µM | PA14 biofilm formation (CFU) compared to DMSO control (PA14 biofilm): significantly attenuates
